These results are taken from patent US20230339937A1, “CONDENSED RING COMPOUNDS THAT INHIBIT H-PGDS” (SATO PHARMACEUTICAL CO., LTD., priority 2020, published 2023).

The target of this assay is T1, Recombinant human H-PGDS (Homo sapiens, UniProt O60760).
T1 construct: made in house; host or cells: E. coli
Description: H-PGDS inhibitory activity (prostaglandin D2 production from prostaglandin H2, measured by LC-MS/MS). In kind it is biochemical. The conditions noted are these: recombinant human H-PGDS 1.0 nM expressed in E. coli; prostaglandin H2 25 μM; preincubated 15 minutes on ice, reacted on ice for 1 minute; concentration that inhibits prostaglandin D2 production by 50%. In a few lines:
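Recombinant human H-PGDS (E. coli-expressed, 1.0 nM final) preincubated with compound 15 min on ice in 20 mM Tris-HCl pH 8.0, 2 mM MgCl2, 2 mM GSH, 0.5 mg/mL γ-globulin. Reaction with 25 µM PGH2 run 1 min on ice, stopped with FeCl2/citric acid, PGD2 quantified by LC-MS/MS. Activity expressed as % of DMSO control after subtracting non-enzymatic PGD2.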

SMILES strings stand for the structures.

T1 sequence (O60760 whole entry): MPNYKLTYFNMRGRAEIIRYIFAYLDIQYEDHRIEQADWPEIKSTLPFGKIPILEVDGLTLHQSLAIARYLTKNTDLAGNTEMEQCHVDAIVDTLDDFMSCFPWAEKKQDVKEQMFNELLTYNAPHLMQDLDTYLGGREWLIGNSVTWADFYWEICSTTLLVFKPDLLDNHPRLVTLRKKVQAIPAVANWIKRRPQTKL

By IC50 is commonly meant the concentration that inhibits the measured activity by half. Turning to `O=C(Nc1cccnc1)c1ccc(-c2nccc3occc23)cc1` [Example 103, 4-(furo[3,2-c]pyridin-4-yl)-N-(pyridin-3-yl)benzamide], the IC50 is 2.1 nM.
The same measure for `O=C(Nc1cc(C2CC2)[nH]n1)c1ccc(-c2nccc3occc23)cc1` [Example 104, N-(5-cyclopropyl-1H-pyrazol-3-yl)-4-(furo[3,2-c]pyridin-4-yl)benzamide]: 8 nM.
As for `NS(=O)(=O)c1cccc(NC(=O)c2ccc(-c3nccc4occc34)cc2)c1` [Example 105, 4-(furo[3,2-c]pyridin-4-yl)-N-(3-sulfamoylphenyl) benzamide], the IC50 came to 2.3 nM.
The same measure for `CS(=O)(=O)c1cccc(NC(=O)c2ccc(-c3nccc4occc34)cc2)c1` [Example 106, 4-(furo[3,2-c]pyridin-4-yl)-N-[3-(methylsulfonyl)phenyl]benzamide]: 3.7 nM; for `O=C(Nc1ccccn1)c1ccc(-c2nccc3occc23)cc1` [Example 107, 4-(furo[3,2-c]pyridin-4-yl)-N-(pyridin-2-yl)benzamide]: 19 nM.
The value for `O=C(Nc1ccncc1)c1ccc(-c2nccc3occc23)cc1` [Example 108, 4-(furo[3,2-c]pyridin-4-yl)-N-(pyridin-4-yl)benzamide] was 5 nM; that for `CS(=O)(=O)c1ccc(NC(=O)c2ccc(-c3nccc4occc34)cc2)cc1` [Example 109, 4-(furo[3,2-c]pyridin-4-yl)-N-[4-(methylsulfonyl)phenyl]benzamide] was 2.9 nM.
The value for `O=C(Nc1ccccc1F)c1ccc(-c2nccc3occc23)cc1` [Example 110, N-(2-fluorophenyl)-4-(furo[3,2-c]pyridin-4-yl)benzamide] was 5.7 nM; that for `O=C(Nc1ccc(F)cc1)c1ccc(-c2nccc3occc23)cc1` [Example 111, N-(4-fluorophenyl)-4-(furo[3,2-c]pyridin-4-yl)benzamide] was 5.5 nM; that for `O=C(Nc1cccc(F)c1)c1ccc(-c2nccc3occc23)cc1` [Example 112, N-(3-fluorophenyl)-4-(furo[3,2-c]pyridin-4-yl)benzamide] was 3.4 nM.
For `O=C(NC1CN(c2ccccn2)C1)c1ccc(-c2nccc3occc23)cc1` [Example 113, 4-(furo[3,2-c]pyridin-4-yl)-N-[1-(pyridin-2-yl)azetidin-3-yl]benzamide], the IC50 was found to be 2.5 nM.
The value for `O=C(NC[C@H]1CC[C@@H](O)CC1)c1ccc(-c2nccc3occc23)cc1` [Example 114, 4-(furo[3,2-c]pyridin-4-yl)-N-[(cis-4-hydroxycyclohexyl)methyl]benzamide] was 25 nM; that for `O=C(NC1CCN(c2ccccc2)CC1)c1ccc(-c2nccc3occc23)cc1` [Example 115, 4-(furo[3,2-c]pyridin-4-yl)-N-(1-phenylpiperidin-4-yl)benzamide] was 1.1 nM; that for `Cc1cc(NC(=O)c2ccc(-c3nccc4occc34)cc2)ccc1S(N)(=O)=O` [Example 116, 4-(furo[3,2-c]pyridin-4-yl)-N-(3-methyl-4-sulfamoylphenyl) benzamide] was 1.6 nM.
The same measure for `Cc1cc(S(N)(=O)=O)ccc1NC(=O)c1ccc(-c2nccc3occc23)cc1` [Example 117, 4-(furo[3,2-c]pyridin-4-yl)-N-(2-methyl-4-sulfamoylphenyl) benzamide]: 12 nM; for `O=C(NC1CCN(c2ccccn2)CC1)c1ccc(-c2nccc3occc23)cc1` [Example 118, 4-(furo[3,2-c]pyridin-4-yl)-N-[1-(pyridin-2-yl)piperidin-4-yl]benzamide]: 0.45 nM.
The same measure for `O=C(N[C@H]1CC[C@H](NCC(F)(F)F)CC1)c1ccc(-c2nccc3occc23)cc1` [Example 119, 4-(furo[3,2-c]pyridin-4-yl)-N-{trans-4-[(2,2,2-trifluoroethyl)amino]cyclohexyl}benzamide]: 1.3 nM; for `O=C(N[C@H]1CC[C@H](CO)CC1)c1ccc(-c2nccc3occc23)cc1` [Example 120, 4-(furo[3,2-c]pyridin-4-yl)-N-[trans-4-(hydroxymethyl)cyclohexyl]benzamide]: 3.3 nM; for `CC(O)[C@H]1CC[C@H](NC(=O)c2ccc(-c3nccc4occc34)cc2)CC1` (stereo partly drawn) [Example 121, 4-(furo[3,2-c]pyridin-4-yl)-N-[trans-4-(1-hydroxyethyl)cyclohexyl]benzamide]: 1.3 nM.
For `CC(C)(O)C1CC2(CC(NC(=O)c3ccc(-c4nccc5occc45)cc3)C2)C1` (stereo not drawn) [Example 122, 4-(furo[3,2-c]pyridin-4-yl)-N-[6-(2-hydroxypropan-2-yl)spiro[3.3]heptan-2-yl]benzamide], the IC50 was found to be 1.3 nM.
The same measure for `O=C(NC1CCN(c2ccncc2)CC1)c1ccc(-c2nccc3occc23)cc1` [Example 123, 4-(furo[3,2-c]pyridin-4-yl)-N-[1-(pyridin-4-yl)piperidin-4-yl]benzamide]: 1.8 nM; for `CC(C)(O)[C@H]1CC[C@H](NC(=O)c2ccc(-c3nccc4occc34)cc2)CC1` [Example 124, 4-(furo[3,2-c]pyridin-4-yl)-N-[trans-4-(2-hydroxypropan-2-yl)cyclohexyl]benzamide]: 1.8 nM; for `CC(C)(O)[C@H]1CC[C@H](NC(=O)c2ccc(-c3nccc4occc34)c(F)c2)CC1` [Example 125, 3-fluoro-4-(furo[3,2-c]pyridin-4-yl)-N-[trans-4-(2-hydroxypropan-2-yl)cyclohexyl]benzamide]: 2.2 nM.
In the case of `CC(C)(O)[C@H]1CC[C@H](NC(=O)c2ccc(-c3nccc4occc34)cc2F)CC1` [Example 126, 2-fluoro-4-(furo[3,2-c]pyridin-4-yl)-N-[trans-4-(2-hydroxypropan-2-yl)cyclohexyl]benzamide], the IC50 is 13 nM.
The value for `Cc1cc2occc2c(-c2ccc(C(=O)N[C@H]3CC[C@H](C(C)(C)O)CC3)cc2)n1` [Example 127, N-[trans-4-(2-hydroxypropan-2-yl)cyclohexyl]-4-(6-methylfuro[3,2-c]pyridin-4-yl)benzamide] was 1.6 nM; that for `Cc1cc2c(-c3ccc(C(=O)N[C@H]4CC[C@H](C(C)(C)O)CC4)cc3)nccc2o1` [Example 128, N-[trans-4-(2-hydroxypropan-2-yl)cyclohexyl]-4-(2-methylfuro[3,2-c]pyridin-4-yl)benzamide] was 3.5 nM; that for `Cc1cnc(-c2ccc(C(=O)N[C@H]3CC[C@H](C(C)(C)O)CC3)cc2)c2ccoc12` [Example 129, N-[trans-4-(2-hydroxypropan-2-yl)cyclohexyl]-4-(7-methylfuro[3,2-c]pyridin-4-yl)benzamide] was 2.4 nM.
Regarding `Cc1coc2ccnc(-c3ccc(C(=O)N[C@H]4CC[C@H](C(C)(C)O)CC4)cc3)c12` [Example 130, N-[trans-4-(2-hydroxypropan-2-yl)cyclohexyl]-4-(3-methylfuro[3,2-c]pyridin-4-yl)benzamide], the IC50 stood at 6.8 nM.
For the compound `CC(C)(O)[C@H]1CC[C@H](NC(=O)c2ccc(-c3nccc4occc34)c(Cl)c2)CC1` [Example 131, 3-chloro-4-(furo[3,2-c]pyridin-4-yl)-N-[trans-4-(2-hydroxypropan-2-yl)cyclohexyl]benzamide], the IC50 worked out at 26 nM.
The same measure for `Cc1cc(C(=O)N[C@H]2CC[C@H](C(C)(C)O)CC2)ccc1-c1nccc2occc12` [Example 132, 4-(furo[3,2-c]pyridin-4-yl)-N-[trans-4-(2-hydroxypropan-2-yl)cyclohexyl]-3-methylbenzamide]: 74 nM.
